Assay [1] concerns anti-A blood serum, anti-B blood serum. The assay can be described thus: Function of serum antibodies for ABO blood types. The format is biochemical, human. On the procedure:
It is also known that antibody has a structure of Y shape which consists of 2 pairs of light chain and heavy chain in generally, and that the fundamental structure is maintained by S—S bond. Serum antibody reaction of ABO blood types is important historically to understand various kinds of antigen-antibody reactions. In this invention, effect of Yoshixol (4 μl) on the standard judgment of ABO blood types was investigated by using human blood of A type, B type and O type (400 μl, respectively).

In assay [2] the test system is atypical mycobacteria (Mycobacterium Rapid Grower). The assay can be described thus: Anti-microbacterial effect on acid-fast bacteria. The format is cell-based.
In assay [3] the test system is human blood (erythrocytes). The experiment in a line: Preservative effect on organs and tissues, stored human blood. As to conditions: 5 ml human blood, 4 μl of Yoshixol. It is filed as cell-based. Here is the method:
After sampling 5 ml of human blood from a cubital vein, the blood sample was replaced into the vacuum tube with 10 ml capacity and was mixed in a gentle. The vacuum tubes were divided by two group; one group is nontreated and another treated with 4 μl of Yoshixol. Then, changes in morphological aspects of blood, which were stored at room temperature, were observed by a transmission type and scanning electron microscopes at 30 minutes, one hour and 1 month after the sampling. […] It was existed likely as a destroyed and aggregated mass. […] Many stomatocytes (lip-like erythrocyte) and echinocyte which is appeared at a lack of pyruvate kinase were observed.

`C=C1CC(C)(C)C=CC1=O` [Yoshixol, 4,4-dimethyl-6-methylene-2-cyclohexen-1-one]: the “primary structure of antiserums for ABO blood types (electrophoretic analysis)” value in assay [1] (after treatment of Yoshixol) is on record as “any change in primary structure of antiserums did not find”. Moreover, in assay [1] (antiserum treated with Yoshixol 4 μl, human blood A, B, O type 400 μl), the “blood aggregation in judgment of ABO blood type” value is given as “any aggregation did not occur”. Besides, the “proliferation with evaporating component of Yoshixol” value in assay [2] (50 μl in the whole space of the schale, indirect contact, 24 hours, 37° C.) is on record as “did not occur”. The “diameter of inhibition zone of proliferation” value in assay [2] (at 2 μl) worked out at 22 mm. The “dosage at which formation of inhibition zone of proliferation occurred” value in assay [2] (brain-heart infusion agar) was 0.2 μl of Yoshixol per 1 ml of the culture medium. The aggregation of erythrocytes entry in assay [3] (room temperature) was “did not show an aggregation with fibrin networks”. Moreover, the “cell membrane and intracellular organella of erythrocytes” value in assay [3] (stored at room temperature) is listed as “preserved normally over 1 month”.

(Values after US6710090B2, “Inhibitory or blocking agents of molecular generating and/or inducing functions” (priority 1994, dated 2004).)
